Marks after values point to notes of the source that are not given here.
Legend:
Format in all cases: in vivo, human (children six months to eight years)
asthmatic children [1] = test: Phase III study of three dose levels of once-a-day budesonide nebulizing suspension and placebo in asthmatic children (Example 1); settings: for Asthma scores: Daytime / Asthma scores: Nighttime: 0-3 score; for proportion of patients discontinuing due to worsening asthma: placebo 23%; for total proportion of patients who were discontinued: placebo 28%
Method: The objectives of the study were to compare the relative efficacy and safety of a nebulizing suspension of budesonide (containing 0.25 mg, 0.5 mg, or 1.0 mg of budesonide per dose), administered once a day, in pediatric asthmatic patients aged six months to eight years.
(§1) This was a multicenter, randomized double-blind, placebo-controlled, parallel-group study.
Patients were asthmatic children who had not been treated with steroids in the 30 days prior to initiation of the study treatment.
Budesonide was administered once per day as a nebulized suspension, at 0.25 mg, 0.5 mg, or 1.0 mg per administration, via a Pari LC-Jet Plus® nebulizer connected to a Pari Master® compressor (Pari Respiratory Equipment, Inc., Richmond, Va.) with a face mask or a mouth piece. The placebo was the solvent used for the budesonide suspension (0.1 mg disodium edetate, 8.5 mg NaCl, 0.2 mg polysorbate, 0.28 mg anhydrous citric acid, and 0.5 mg sodium citrate per 1 ml water) but without budesonide.
Primary efficacy variables were mean changes from baseline in daytime and nighttime asthma symptom scores over the 12 week treatment phase. The symptom scores are based on the subjective evaluation by the patients or their parents based on a 0-3 rating system in which 0=no symptoms, 1=mild symptoms, 2=moderate symptoms, and 3=severe symptoms.
Secondary efficacy variables were: (a) patient outcomes, including the proportion of patients who were discontinued from the study for any reason and the proportion of patients who were discontinued from this study due to worsening asthma; (b) the number of days breakthrough (bronchodilator) medication was used; (c) spirometry test variables, including FEV1, FEF25-75 (forced expiratory flow during the middle half of the forced vital capacity in liters per second) and FVC (forced vital capacity in liters), performed at clinic visits in the subset of patients capable of performing spirometry testing; (d) PEF (peak expiratory flow in liters per minute) measured daily in the morning and evening in the subset of patients capable of performing PEF testing; (e) changes in health status measurements, including the Modified Functional Status II Scale Child Health Status Scale and the RAND General Health Index; and (f) differences in asthma-related health care utilization and indirect health care costs.
(§2) Safety variables were: (a) reported adverse effects that could be due to the drug; (b) morning basal and post-ACTH-simulation effects on plasma cortisol levels (HPA-axis function); and (c) changes in physical examinations, vital signs, and clinical laboratory tests, including oropharyngeal and nasal fungal cultures.
(§3) Analysis of variance was used to compare differences between treatment groups for all efficacy variables, with the exception of patient outcomes, which were analyzed using Fisher's exact test. Analysis of variance was also used for morning basal and post-ACTH-simulation effects on plasma cortisol levels. Descriptive statistics were used to present all other safety data.
Results of nighttime and daytime asthma symptom scores, and the number of days of use of breakthrough medication are presented in Table 1. Data are expressed as the adjusted mean change from baseline over the 12-week treatment phase, all patients treated, last value carried forward (*p≦0.050, **p≦0.010, and ***p≦0.001 versus placebo (PBO); “n” is number of patients). Thus improvements are indicated by negative values of these variables.

asthmatic children [2] = test: Phase III study of four dose regimens of budesonide nebulizing suspension and placebo in asthmatic children (Example 2); design: Nighttime Asthma Symptom Score: scale not given here; FEV1: unit not given here; settings: for FEV1 / Evening PEF / Morning PEF / Daytime Asthma Symptom Score / Nighttime Asthma Symptom Score / Number of Days Use of Breakthrough Medication: adjusted mean change from baseline over 12 weeks; for proportion of patients discontinuing due to worsening asthma: placebo 26.3%; for total proportion of patients who were discontinued: placebo 39%
Method: The objectives of the study were to compare the relative efficacy and safety of budesonide in a nebulizing suspension (0.25 mg administered once a day (QD), 0.25 mg administered twice per day (BID), 0.5 mg BID or 1.0 mg QD) in pediatric asthmatic patients aged six months to eight years.
as §1
Patients were mild to moderate asthmatic children aged six months to eight years of age with a diagnosis of asthma as defined by the National Institutes of Health of the U.S. Department of Health and Human Services, including:
(a) exacerbations of cough and/or wheezing on a frequent basis, including nocturnal asthma, with infrequent severe exacerbations during the last six months; (b) daily use of at least one chronic asthma medication (which could have been an inhaled GCS) with periodic use of breakthrough medication for at least three months prior to Visit 1; and (c) basal FEV1 of […] of predicted and reversibility of […] at 15±5 minutes after a standard dose of inhaled bronchodilator for patients capable of performing consistent PFTs. […]
Primary efficacy variables were mean changes from baseline in daytime and nighttime asthma symptom scores over the 12-week treatment phase. The symptom scores were obtained as in Example 1.
Secondary efficacy variables were: (a) the number of days breakthrough (bronchodilator) medication was used; (b) spirometry test variables, including FEV1, FEF25-75, and FVC performed at clinic visits in the subset of patients capable of performing spirometry testing; (c) PEF measured daily in the morning and evening in the subset of patients capable of performing PEFs; and (d) proportion of patient discontinuations from the study.
as §2, with “adverse events” for “adverse effects”, “(HPA-axis function) in a subset of patients;” for “(HPA-axis function);”, “vital signs” for “vital signs,”
as §3, with “patient discontinuations from the study,” for “patient outcomes,”, “which was” for “which were”
A total of 471 patients were evaluated for efficacy (all patients treated). Data are expressed as the adjusted mean change from baseline over the 12-week treatment phase, all patients treated, last value carried forward (*p≦0.050; **p≦0.010 and ***p≦0.001, versus placebo; “n” is the number of patients).

[3] = tested on: plasma cortisol levels (HPA-axis function); test: Basal and post-ACTH-stimulated plasma cortisol levels, Example 1; settings: 0.25, 0.5, 1.0 mg once a day; baseline to week 12 versus placebo
Method: as §2, §3
ACTH production is stimulated by injection (intravenous for young children and intramuscular for infants) of corticotropin one hour before morning blood sampling.

[4] = tested on: plasma cortisol levels (HPA-axis function); test: Basal and post-ACTH-stimulated plasma cortisol levels, Example 2; settings: 0.25 mg QD, 0.25 mg BID, 0.5 mg BID, 1.0 mg QD; baseline to week 12 versus placebo
Source text: as §2, with “adverse events” for “adverse effects”, “(HPA-axis function) in a subset of patients;” for “(HPA-axis function);”, “vital signs” for “vital signs,”
as §3, with “patient discontinuations from the study,” for “patient outcomes,”, “which was” for “which were”

[5] = 0.25 mg once a day nebulized, adjusted mean change from baseline over 12 weeks, n = 91
[6] = 0.5 mg once a day nebulized, adjusted mean change from baseline over 12 weeks, n = 82
[7] = 1.0 mg once a day nebulized, adjusted mean change from baseline over 12 weeks, n = 93
[8] = 0.25 mg BID, n = 34, no unit in table
[9] = 0.5 mg BID, n = 29, no unit in table
[10] = 1.0 mg QD, n = 34, no unit in table

CCCC1O[C@@H]2C[C@H]3[C@@H]4CCC5=CC(=O)C=C[C@]5(C)[C@H]4[C@@H](O)C[C@]3(C)[C@]2(C(=O)CO)O1 (stereo partly drawn) [Budesonide, budesonide]
Asthma scores: Daytime (asthmatic children [1]; [5]): −0.57** | Asthma scores: Nighttime (asthmatic children [1]; [5]): −0.49*** | FEV1 (asthmatic children [1]; 0.25 mg once a day, adjusted mean change from baseline over 12 weeks, n = 29): -0.01 L | Morning PEF (asthmatic children [1]; 0.25 mg once a day, adjusted mean change from baseline over 12 weeks, n = 44): 14.4 L/min | Days of use of bronchodilator (asthmatic children [1]; 0.25 mg once a day, adjusted mean change from baseline over 12 weeks, n = 91): −6.26* days | proportion of patients discontinuing due to worsening asthma (asthmatic children [1]; 0.25 mg once a day): 14% | total proportion of patients who were discontinued (asthmatic children [1]; 0.25 mg once a day): 19% | Asthma scores: Daytime (asthmatic children [1]; [6]): −0.46* | Asthma scores: Nighttime (asthmatic children [1]; [6]): −0.42** | FEV1(L) (asthmatic children [1]; 0.5 mg once a day, adjusted mean change from baseline over 12 weeks, n = 28): 0.03* L | Morning PEF (asthmatic children [1]; 0.5 mg once a day, adjusted mean change from baseline over 12 weeks, n = 41): 6.5 L/min | Days of use of bronchodilator (asthmatic children [1]; 0.5 mg once a day, adjusted mean change from baseline over 12 weeks, n = 82): −5.31* days | proportion of patients discontinuing due to worsening asthma (asthmatic children [1]; 0.5 mg once a day): 17% | total proportion of patients who were discontinued (asthmatic children [1]; 0.5 mg once a day): 24% | Asthma scores: Daytime (asthmatic children [1]; [7]): −0.50* | Asthma scores: Nighttime (asthmatic children [1]; [7]): −0.42** | FEV1(L) (asthmatic children [1]; 1.0 mg once a day, adjusted mean change from baseline over 12 weeks, n = 33): 0.03* L | Morning PEF (asthmatic children [1]; 1.0 mg once a day, adjusted mean change from baseline over 12 weeks, n = 55): 10.9 L/min | Days of use of bronchodilator (asthmatic children [1]; 1.0 mg once a day, adjusted mean change from baseline over 12 weeks, n = 93): −5.98* days | proportion of patients discontinuing due to worsening asthma (asthmatic children [1]; 1.0 mg once a day): 13% | total proportion of patients who were discontinued (asthmatic children [1]; 1.0 mg once a day, p=0.020): 14% | vital signs or physical examination differences between treatment groups (asthmatic children [1]; in vivo): no clinically relevant differences | clinically significant changes in nasal or oral fungal cultures between treatment groups (asthmatic children [1]; three doses once a day, 12 weeks): no clinically relevant differences | FEV1 (asthmatic children [2]; 0.25 mg BID, n = 33, no unit in table): 0.03 | Evening PEF (asthmatic children [2]; [8]): 19.2* ^ | Morning PEF (asthmatic children [2]; [8]): 23.0** | Daytime Asthma Symptom Score (asthmatic children [2]; 0.25 mg BID, n = 97): −0.40* | Nighttime Asthma Symptom Score (asthmatic children [2]; 0.25 mg BID, n = 97): −0.49*** | Number of Days Use of Breakthrough Medication (asthmatic children [2]; 0.25 mg BID, n = 97): −5.22*** days | proportion of patients discontinuing due to worsening asthma (asthmatic children [2]; 0.25 mg BID, p=0.029): 13.1% | total proportion of patients who were discontinued (asthmatic children [2]; 0.25 mg BID): 21% | FEV1 (asthmatic children [2]; 0.25 mg QD, n = 31, no unit in table): 0.07 | Evening PEF (asthmatic children [2]; 0.25 mg QD, n = 32, no unit in table): 16.8* | Morning PEF (asthmatic children [2]; 0.25 mg QD, n = 32, no unit in table (baseline PEF in L/min)): 10.9 | Daytime Asthma Symptom Score (asthmatic children [2]; 0.25 mg QD, n = 92): −0.28 | Nighttime Asthma Symptom Score (asthmatic children [2]; 0.25 mg QD, n = 93): −0.28 | Number of Days Use of Breakthrough Medication (asthmatic children [2]; 0.25 mg QD, n = 93): −4.39* days | proportion of patients discontinuing due to worsening asthma (asthmatic children [2]; 0.25 mg QD): 16.0% | total proportion of patients who were discontinued (asthmatic children [2]; 0.25 mg QD): 21% | Evening PEF (asthmatic children [2]; [9]): 21.0** | FEV1 (asthmatic children [2]; [9]): 0.17* | Morning PEF (asthmatic children [2]; [9]): 24.8** | Daytime Asthma Symptom Score (asthmatic children [2]; 0.5 mg BID, n = 96): −0.46** | Nighttime Asthma Symptom Score (asthmatic children [2]; 0.5 mg BID, n = 96): −0.42** | Number of Days Use of Breakthrough Medication (asthmatic children [2]; 0.5 mg BID, n = 96): −4.92** days | proportion of patients discontinuing due to worsening asthma (asthmatic children [2]; 0.5 mg BID): 15.3% | total proportion of patients who were discontinued (asthmatic children [2]; 0.5 mg BID): 19% | Evening PEF (asthmatic children [2]; [10]): 14.1 | FEV1 (asthmatic children [2]; [10]): 0.11 | Morning PEF (asthmatic children [2]; [10]): 17.1* | Daytime Asthma Symptom Score (asthmatic children [2]; 1.0 mg QD, n = 93): −0.37* | Nighttime Asthma Symptom Score (asthmatic children [2]; 1.0 mg QD, n = 93): −0.40** | Number of Days Use of Breakthrough Medication (asthmatic children [2]; 1.0 mg QD, n = 93): −4.38* days | proportion of patients discontinuing due to worsening asthma (asthmatic children [2]; 1.0 mg QD): 21.1% | total proportion of patients who were discontinued (asthmatic children [2]; 1.0 mg QD): 31% | number of patients with clinically significant changes in nasal or oral fungal cultures between treatment groups (asthmatic children [2]; four regimens, 12 weeks): no apparent differences | type, incidence or severity of adverse events compared to placebo (asthmatic children [2]; in vivo): no clinically relevant differences | vital signs or physical examination outcomes between treatment groups (asthmatic children [2]; in vivo): no clinically relevant differences | HPA-axis suppression (basal and post-ACTH-stimulated plasma cortisol) [3]: no evidence of HPA-axis suppression | HPA-axis suppression (basal and post-ACTH-stimulated plasma cortisol) [4]: no evidence of HPA-axis suppression

Reference: US20130029956A1, “NEW METHOD” (ASTRAZENECA AB, priority 1997, published 2013)
